{"source": "patent US8822440B2", "about": "“Inhibiting cyclin D polypeptides” (Mayo Foundation for Medical Education and Research, priority 2006, dated 2014)", "key": {"[1]": {"tested_on": "cyclin D1, cyclin D2, cyclin D3", "experiment": "Immunoblot of cyclin D proteins in HMCL", "assay_type": "cell-based, human", "procedure": "Immunoblotting. Cytosolic extracts were prepared from HMCL or purified patient CD138^+ myeloma cells following exposure to kinetin riboside. Cells were washed with cold PBS, resuspended in cold RIPA buffer (5×10^6 cells/100 μL) containing fresh protease and phosphatase inhibitors (Santa Cruz Biotechnology, Santa Cruz, Calif.) and incubated on ice for 30 minutes with gentle mixing. The supernatant was repossessed following high speed centrifugation, and protein concentrations were determined by the Bradford assay. Immunoblot assays were performed as described elsewhere (Krajewski et al., Anal. Biochem., 236:221-228 (1996)). Briefly, equal amounts of protein were separated by SDS-PAGE and transferred to a PVDF nitrocellulose membrane using a semi-dry apparatus. Membranes were blocked using 5% skim milk in Tris buffered saline and probed with monoclonal mouse anti-cyclin D1 (DCS-6, Biosource, Camarillo, Calif.), polyclonal rabbit anti-cyclin D2 (#2924, Cell Signalling Technology), monoclonal mouse anti-cyclin D3 (DCS-22, BioSource), polyclonal rabbit anti-c-Maf (M-153, Santa Cruz), polyclonal rabbit anti-Cleaved Caspase 9 (Asp315) (Cell Signaling Technology), monoclonal mouse anti-β-actin (Cell Signaling Technology) and/or monoclonal anti-a-tubulin (B-7)(Santa Cruz Biotechnology, Santa Cruz, Calif.). Membrane proteins were visualized using HRP-conjugated species-specific secondary antibodies (Cell Signaling Technology) and enhanced chemiluminescence (Pierce, Rockford, Ill.)."}, "CD138+ myeloma cells": {"tested_on": "CD138+ myeloma cells", "experiment": "Unsorted myeloma patient bone marrow, flow cytometry: CD138+ myeloma cells", "assay_type": "cell-based, human", "procedure": "(§1) Flow cytometry. HMCL were treated as indicated and then washed in cold phosphate-buffered saline (PBS) and resuspended in buffer containing AnnexinV-FITC and propidium iodide (BD Biosciences, San Jose, Calif.) for 15 minutes at room temperature. Cells (10^5) were subsequently diluted and analyzed immediately by flow cytometry (FACScan, BD Biosciences, San Jose, Calif.) using CellQuest software. Patient bone marrow specimens were prepared and analyzed in a similar fashion using AnnexinV-FITC and anti-CD138-PE (BD Biosciences, San Jose, Calif.).\n(§2) As mouse embryos that lack any D-cyclins eventually die from hematopoietic failure (Kozar et al., Cell, 118, 477-91 (2004)), the bone marrow might be predicted to be one of the most sensitive non-malignant tissue to be affected by drugs targeting cyclin D expression. Unsorted bone marrow samples from myeloma patients were treated with kinetin riboside to assess the relative cytotoxicity of this drug on malignant versus non-malignant marrow cells. Bone marrow samples were first processed to remove non-nucleated red cells and were then treated for 48 hours with kinetin riboside (5 μM)."}, "[2]": {"settings": "mouse, in vivo", "text": "Kinetin riboside toxicity in mice. In vivo toxicity studies of synthetic kinetin riboside were initiated in balc/c mice. […] The actual volume of distribution and the half-life of kinetin riboside in vivo are at present unknown and future schedules of administration may require adjustment to account for these."}, "[3]": {"tested_on": "CD138− hematopoietic cells", "experiment": "Unsorted myeloma patient bone marrow, flow cytometry: CD138- non-malignant cells", "assay_type": "cell-based", "procedure": "as §1, §2"}, "HMCL": {"tested_on": "HMCL", "experiment": "Annexin V / propidium iodide flow cytometry of HMCL", "assay_type": "cell-based, human", "procedure": "as §1"}, "cyclin D1, cyclin D2": {"tested_on": "cyclin D1, cyclin D2", "experiment": "Immunoblot of cyclin D proteins in purified patient CD138+ myeloma cells", "assay_type": "cell-based, human", "procedure": "Primary CD138^+ myeloma cell purification. Samples from patients diagnosed by International Myeloma Working Group criteria were included in this study. Bone marrow processing, including red cell lysis using ammonium chloride and CD138^+ plasma cell purification, was performed as described elsewhere (Abraham et al., Blood, 105, 794-803 (2005)). Research BM samples were obtained following informed consent at the time of routine procurement of clinical samples.\nImmunoblotting. Cytosolic extracts were prepared from HMCL or purified patient CD138^+ myeloma cells following exposure to kinetin riboside. Cells were washed with cold PBS, resuspended in cold RIPA buffer (5×10^6 cells/100 μL) containing fresh protease and phosphatase inhibitors (Santa Cruz Biotechnology, Santa Cruz, Calif.) and incubated on ice for 30 minutes with gentle mixing. The supernatant was repossessed following high speed centrifugation, and protein concentrations were determined by the Bradford assay. Immunoblot assays were performed as described elsewhere (Krajewski et al., Anal. Biochem., 236:221-228 (1996)). Briefly, equal amounts of protein were separated by SDS-PAGE and transferred to a PVDF nitrocellulose membrane using a semi-dry apparatus. […]"}}, "note": "Read-outs that look alike come from different tables or passages of the source.", "data": [{"smiles": "OC[C@H]1O[C@@H](n2cnc3c(NCc4ccco4)ncnc32)[C@H](O)[C@@H]1O", "note": "[kinetin riboside, N6-Furfuryladenosine]", "values": [{"measurement": "lag between exposure and cyclin D1 or D2 suppression", "setting": "[1]", "result": "4 to 6", "unit": "h"}, {"measurement": "time to suppression of cyclin D1 and D2 proteins", "setting": "[1]; H929, 10 μM", "result": "≤ 6", "unit": "h"}, {"measurement": "time until cyclin D3 levels significantly affected", "setting": "[1]; H929, 10 μM", "result": "≥ 28", "unit": "h"}, {"measurement": "cyclin D3 protein levels", "setting": "[1]; HMCL, 10 μM, 16 hours", "result": "did not influence cyclin D3 levels"}, {"measurement": "cyclin D1 and D2 protein levels in Kms11", "setting": "[1]; Kms11", "result": "significant suppression only of cyclin D2 but not D1"}, {"measurement": "cyclin D1 protein level in U266", "setting": "[1]; U266, 10 μM, 16 hours", "result": "suppression of cyclin D1"}, {"measurement": "cyclin D1 and/or D2 protein levels", "setting": "[1]; all HMCL tested, 10 μM, 16 hours", "result": "significant suppression"}, {"measurement": "kill of patient CD138+ myeloma cells", "setting": "CD138+ myeloma cells; 5 μM, 48 hours", "result": 92, "unit": "%"}, {"measurement": "effect on primary CD138+ myeloma cells", "setting": "CD138+ myeloma cells; patient bone marrow, 48 hours", "result": "most CD138+ cells become apoptotic"}, {"measurement": "activity against CD138+ myeloma cells compared with non malignant hematopoietic cells", "setting": "CD138+ myeloma cells; unsorted myeloma patient bone marrow samples", "result": "selective activity"}, {"measurement": "final concentration equated from a dose of 25 mg/kg", "setting": "[2]; BALB/c (printed as \"balc/c\"), 25 mg/kg", "result": "about 60 μM"}, {"measurement": "duration of hypoactivity after treatment", "setting": "[2]; BALB/c", "result": "15 to 30", "unit": "min"}, {"measurement": "maximum tolerated single dose (MTDs)", "setting": "[2]; BALB/c, ip", "result": "~100", "unit": "mg/kg"}, {"measurement": "maximum tolerated single dose (MTDs)", "setting": "[2]; BALB/c, iv", "result": "about 25 mg/kg"}, {"measurement": "tolerability of multi-dose regimen", "setting": "[2]", "result": "well tolerated"}, {"measurement": "toxicity in CD138− bone marrow progenitor compartment", "setting": "[3]", "result": "only modest toxicity"}, {"measurement": "effect on non-malignant CD138− marrow cells", "setting": "[3]; human, 48 h, 5 μM", "result": "leaving the majority of non-malignant CD138− marrow cells intact"}, {"measurement": "time to Annexin-V surface binding and loss of CD138 expression", "setting": "HMCL", "result": "24 to 96", "unit": "h"}, {"measurement": "response of H929 cells", "setting": "HMCL; H929, 10 μM", "result": "apoptosis"}, {"measurement": "response of U266 cells", "setting": "HMCL; U266, 10 μM, 96 hours", "result": "growth inhibition"}, {"measurement": "patient samples with suppression of cyclin D1 or D2", "setting": "cyclin D1, cyclin D2; 10 μM, 16 hours", "result": "4 of 5"}, {"measurement": "cyclin D1 and D2 levels in sample E (plasma cell leukemia)", "setting": "cyclin D1, cyclin D2; patient E", "result": "unaffected"}]}]}
